Measured values taken from ChEMBL document CHEMBL5649169 (ChemMedChem, 2018).

Columns and labels:
[1] = target: Peroxisomal acyl-coenzyme A oxidase 1 (Homo sapiens) (UniProt Q15067)
[2] = target: Low molecular weight phosphotyrosine protein phosphatase (Homo sapiens) (UniProt P24666)
[3] = target: RAC-alpha serine/threonine-protein kinase (Homo sapiens) (UniProt P31749)
[4] = target: AP-1 complex subunit mu-1 (Homo sapiens) (UniProt Q9BXS5)
[5] = target: ATP synthase peripheral stalk subunit b, mitochondrial (Homo sapiens) (UniProt P24539)
[6] = target: Bone morphogenetic protein receptor type-2 (Homo sapiens) (UniProt Q13873)
[7] = target: eIF5-mimic protein 2 (Homo sapiens) (UniProt Q7L1Q6)
[8] = target: Calnexin (Homo sapiens) (UniProt P27824)
[9] = target: F-actin-capping protein subunit beta (Homo sapiens) (UniProt P47756)
[10] = target: T-complex protein 1 subunit gamma (Homo sapiens) (UniProt P49368)
[11] = target: Dual specificity protein kinase CLK2 (Homo sapiens) (UniProt P49760)
[12] = target: Coatomer subunit epsilon (Homo sapiens) (UniProt O14579)
[13] = target: Coronin-1A (Homo sapiens) (UniProt P31146)
[14] = target: Exportin-2 (Homo sapiens) (UniProt P55060)
[15] = target: Casein kinase II subunit alpha' (Homo sapiens) (UniProt P19784)
[16] = target: Eukaryotic translation initiation factor 4 gamma 1 (Homo sapiens) (UniProt Q04637)
[17] = target: Filamin-A (Homo sapiens) (UniProt P21333)
[18] = target: Fascin (Homo sapiens) (UniProt Q16658)
[19] = target: Glucose-6-phosphate isomerase (Homo sapiens) (UniProt P06744)
[20] = target: Heterogeneous nuclear ribonucleoprotein A3 (Homo sapiens) (UniProt P51991)
[21] = target: Heterogeneous nuclear ribonucleoprotein D0 (Homo sapiens) (UniProt Q14103)
[22] = target: Importin subunit beta-1 (Homo sapiens) (UniProt Q14974)
[23] = target: Protein MAL2 (Homo sapiens) (UniProt Q969L2)
[24] = target: Mitogen-activated protein kinase kinase kinase kinase 3 (Homo sapiens) (UniProt Q8IVH8)
[25] = target: Proliferation marker protein Ki-67 (Homo sapiens) (UniProt P46013)
[26] = target: Protein MON2 homolog (Homo sapiens) (UniProt Q7Z3U7)
[27] = target: Poly(rC)-binding protein 1 (Homo sapiens) (UniProt Q15365)
[28] = target: Programmed cell death 6-interacting protein (Homo sapiens) (UniProt Q8WUM4)
[29] = target: D-3-phosphoglycerate dehydrogenase (Homo sapiens) (UniProt O43175)
[30] = target: Mitochondrial-processing peptidase subunit beta (Homo sapiens) (UniProt O75439)
[31] = target: Thioredoxin-dependent peroxide reductase, mitochondrial (Homo sapiens) (UniProt P30048)
[32] = target: Proteasome activator complex subunit 2 (Homo sapiens) (UniProt Q9UL46)
[33] = target: Ras-related protein Rab-14 (Homo sapiens) (UniProt P61106)
[34] = target: RNA-binding protein 3 (Homo sapiens) (UniProt P98179)
[35] = target: Large ribosomal subunit protein uL1 (Homo sapiens) (UniProt P62906)
[36] = target: Small ribosomal subunit protein eS27 (Homo sapiens) (UniProt P42677)
[37] = target: Ribosomal protein S6 kinase alpha-3 (Homo sapiens) (UniProt P51812)
[38] = target: Protein transport protein Sec23A (Homo sapiens) (UniProt Q15436)
[39] = target: U5 small nuclear ribonucleoprotein 200 kDa helicase (Homo sapiens) (UniProt O75643)
[40] = target: SUN domain-containing protein 2 (Homo sapiens) (UniProt Q9UH99)
[41] = target: Transmembrane 9 superfamily member 4 (Homo sapiens) (UniProt Q92544)
[42] = target: Transmembrane protein 161A (Homo sapiens) (UniProt Q9NX61)
[43] = target: Thioredoxin-related transmembrane protein 1 (Homo sapiens) (UniProt Q9H3N1)
[44] = target: RNA-binding protein RO60 (Homo sapiens) (UniProt P10155)
[45] = target: Non-receptor tyrosine-protein kinase TYK2 (Homo sapiens) (UniProt P29597)
[46] = target: X-ray repair cross-complementing protein 5 (Homo sapiens) (UniProt P13010)
[47] = target: Tyrosine--tRNA ligase, cytoplasmic (Homo sapiens) (UniProt P54577)
Further: assay method not described here.

Chain of Poly(rC)-binding protein 1 (Homo sapiens) (Q15365 whole entry): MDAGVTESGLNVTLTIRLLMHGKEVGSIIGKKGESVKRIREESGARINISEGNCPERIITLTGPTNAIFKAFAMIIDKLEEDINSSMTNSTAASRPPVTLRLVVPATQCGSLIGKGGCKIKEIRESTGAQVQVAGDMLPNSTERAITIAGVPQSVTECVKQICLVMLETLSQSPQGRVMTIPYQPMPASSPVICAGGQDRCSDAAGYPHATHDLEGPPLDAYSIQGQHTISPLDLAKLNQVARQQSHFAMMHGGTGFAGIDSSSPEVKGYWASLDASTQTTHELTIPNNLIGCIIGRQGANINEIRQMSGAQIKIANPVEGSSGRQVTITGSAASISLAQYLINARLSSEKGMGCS
Chain of Coronin-1A (Homo sapiens) (P31146 whole entry): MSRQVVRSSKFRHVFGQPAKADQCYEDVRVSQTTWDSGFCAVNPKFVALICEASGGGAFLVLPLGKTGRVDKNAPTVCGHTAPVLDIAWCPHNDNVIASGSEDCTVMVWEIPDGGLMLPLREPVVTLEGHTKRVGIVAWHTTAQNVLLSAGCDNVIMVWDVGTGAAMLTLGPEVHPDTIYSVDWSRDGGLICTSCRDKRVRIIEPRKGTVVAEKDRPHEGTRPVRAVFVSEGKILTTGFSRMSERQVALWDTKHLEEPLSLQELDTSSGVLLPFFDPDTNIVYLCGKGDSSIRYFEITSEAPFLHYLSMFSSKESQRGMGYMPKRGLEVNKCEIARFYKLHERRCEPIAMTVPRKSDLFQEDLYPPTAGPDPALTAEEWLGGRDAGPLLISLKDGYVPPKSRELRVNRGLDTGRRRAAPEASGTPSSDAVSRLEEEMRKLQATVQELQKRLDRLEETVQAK
Chain of Mitochondrial-processing peptidase subunit beta (Homo sapiens) (O75439 whole entry): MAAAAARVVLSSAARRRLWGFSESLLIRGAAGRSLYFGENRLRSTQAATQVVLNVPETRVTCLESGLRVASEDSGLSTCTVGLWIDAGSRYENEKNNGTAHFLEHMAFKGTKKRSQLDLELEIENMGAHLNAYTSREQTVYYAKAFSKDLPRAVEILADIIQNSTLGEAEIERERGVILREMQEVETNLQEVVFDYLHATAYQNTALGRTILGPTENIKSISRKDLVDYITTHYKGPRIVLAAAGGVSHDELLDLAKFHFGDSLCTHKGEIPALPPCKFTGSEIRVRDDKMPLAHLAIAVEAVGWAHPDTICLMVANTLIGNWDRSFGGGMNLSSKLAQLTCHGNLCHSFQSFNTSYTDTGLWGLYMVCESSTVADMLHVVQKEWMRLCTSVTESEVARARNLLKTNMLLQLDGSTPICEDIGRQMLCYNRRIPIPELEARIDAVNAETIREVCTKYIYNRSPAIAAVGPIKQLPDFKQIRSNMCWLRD
Chain of Tyrosine--tRNA ligase, cytoplasmic (Homo sapiens) (P54577 whole entry): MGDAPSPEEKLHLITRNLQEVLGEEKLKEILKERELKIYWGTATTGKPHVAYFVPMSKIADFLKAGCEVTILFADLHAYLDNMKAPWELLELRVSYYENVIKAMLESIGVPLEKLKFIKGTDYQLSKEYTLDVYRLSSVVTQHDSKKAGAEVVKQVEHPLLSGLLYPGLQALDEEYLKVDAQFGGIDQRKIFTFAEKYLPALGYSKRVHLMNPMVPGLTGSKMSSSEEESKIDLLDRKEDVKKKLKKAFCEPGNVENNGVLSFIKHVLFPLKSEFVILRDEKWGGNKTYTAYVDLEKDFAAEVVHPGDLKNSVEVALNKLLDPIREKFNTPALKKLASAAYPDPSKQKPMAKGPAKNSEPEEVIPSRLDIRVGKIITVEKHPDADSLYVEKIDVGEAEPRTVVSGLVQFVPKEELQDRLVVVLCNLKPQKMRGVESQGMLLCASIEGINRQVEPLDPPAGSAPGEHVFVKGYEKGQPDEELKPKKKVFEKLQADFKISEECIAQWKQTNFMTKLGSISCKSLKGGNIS
Chain of Ribosomal protein S6 kinase alpha-3 (Homo sapiens) (P51812 whole entry): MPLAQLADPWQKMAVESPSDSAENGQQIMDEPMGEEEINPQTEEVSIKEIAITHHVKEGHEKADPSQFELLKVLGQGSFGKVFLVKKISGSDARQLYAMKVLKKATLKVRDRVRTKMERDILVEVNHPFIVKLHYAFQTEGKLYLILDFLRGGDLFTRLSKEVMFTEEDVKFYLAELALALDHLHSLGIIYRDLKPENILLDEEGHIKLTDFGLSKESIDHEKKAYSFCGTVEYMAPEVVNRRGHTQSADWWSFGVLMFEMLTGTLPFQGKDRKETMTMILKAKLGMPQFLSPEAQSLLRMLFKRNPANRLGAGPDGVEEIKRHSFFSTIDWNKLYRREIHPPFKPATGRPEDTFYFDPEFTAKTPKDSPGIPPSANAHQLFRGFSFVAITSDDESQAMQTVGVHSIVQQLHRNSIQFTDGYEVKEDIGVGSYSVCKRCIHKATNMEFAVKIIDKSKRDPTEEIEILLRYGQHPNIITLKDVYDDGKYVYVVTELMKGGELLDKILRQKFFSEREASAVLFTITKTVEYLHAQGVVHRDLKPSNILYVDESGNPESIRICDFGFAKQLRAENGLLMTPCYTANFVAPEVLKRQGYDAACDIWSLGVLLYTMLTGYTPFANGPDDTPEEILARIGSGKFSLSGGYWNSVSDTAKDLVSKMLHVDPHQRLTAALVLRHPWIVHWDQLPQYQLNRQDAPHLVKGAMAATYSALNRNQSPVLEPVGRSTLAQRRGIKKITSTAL
Chain of Calnexin (Homo sapiens) (P27824 whole entry): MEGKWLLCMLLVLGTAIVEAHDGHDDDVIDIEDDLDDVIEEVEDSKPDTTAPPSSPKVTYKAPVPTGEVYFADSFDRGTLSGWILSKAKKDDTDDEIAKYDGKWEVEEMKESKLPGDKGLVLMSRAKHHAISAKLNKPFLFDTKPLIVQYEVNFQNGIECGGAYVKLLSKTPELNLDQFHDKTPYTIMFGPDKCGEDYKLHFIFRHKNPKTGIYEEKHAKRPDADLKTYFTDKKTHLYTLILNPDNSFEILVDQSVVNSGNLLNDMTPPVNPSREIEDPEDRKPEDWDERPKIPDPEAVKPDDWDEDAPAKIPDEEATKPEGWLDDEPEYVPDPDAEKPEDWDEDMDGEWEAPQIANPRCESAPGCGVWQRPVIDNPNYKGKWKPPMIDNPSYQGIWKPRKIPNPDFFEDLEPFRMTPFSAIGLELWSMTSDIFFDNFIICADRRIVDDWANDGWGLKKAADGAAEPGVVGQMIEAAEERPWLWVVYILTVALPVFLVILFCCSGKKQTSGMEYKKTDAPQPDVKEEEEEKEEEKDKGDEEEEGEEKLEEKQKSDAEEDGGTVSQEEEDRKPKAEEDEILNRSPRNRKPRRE
Chain of Mitogen-activated protein kinase kinase kinase kinase 3 (Homo sapiens) (Q8IVH8 whole entry): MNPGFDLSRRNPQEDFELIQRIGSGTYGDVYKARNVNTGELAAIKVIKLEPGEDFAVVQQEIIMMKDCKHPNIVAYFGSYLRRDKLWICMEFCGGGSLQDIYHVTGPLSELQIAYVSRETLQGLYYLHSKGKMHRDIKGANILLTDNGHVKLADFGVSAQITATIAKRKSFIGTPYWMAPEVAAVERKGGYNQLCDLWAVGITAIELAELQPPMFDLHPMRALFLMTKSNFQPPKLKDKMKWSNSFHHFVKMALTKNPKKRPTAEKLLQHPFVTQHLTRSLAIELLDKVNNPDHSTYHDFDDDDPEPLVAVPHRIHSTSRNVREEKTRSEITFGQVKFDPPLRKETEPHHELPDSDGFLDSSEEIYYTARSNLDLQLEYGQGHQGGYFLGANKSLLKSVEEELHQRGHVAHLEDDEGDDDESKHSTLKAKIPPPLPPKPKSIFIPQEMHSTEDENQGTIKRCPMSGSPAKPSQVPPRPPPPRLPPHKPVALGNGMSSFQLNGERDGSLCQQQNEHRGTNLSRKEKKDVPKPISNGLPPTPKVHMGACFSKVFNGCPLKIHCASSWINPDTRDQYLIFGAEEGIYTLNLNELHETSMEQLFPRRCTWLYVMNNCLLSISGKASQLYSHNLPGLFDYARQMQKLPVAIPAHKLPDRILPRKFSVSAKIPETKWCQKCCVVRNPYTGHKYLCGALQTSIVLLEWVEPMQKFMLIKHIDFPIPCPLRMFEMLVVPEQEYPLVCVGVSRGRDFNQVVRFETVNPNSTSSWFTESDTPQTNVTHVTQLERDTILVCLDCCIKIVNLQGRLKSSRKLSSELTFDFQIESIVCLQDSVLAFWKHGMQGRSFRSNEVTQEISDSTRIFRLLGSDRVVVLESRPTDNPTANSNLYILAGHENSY
Chain of Thioredoxin-dependent peroxide reductase, mitochondrial (Homo sapiens) (P30048 whole entry): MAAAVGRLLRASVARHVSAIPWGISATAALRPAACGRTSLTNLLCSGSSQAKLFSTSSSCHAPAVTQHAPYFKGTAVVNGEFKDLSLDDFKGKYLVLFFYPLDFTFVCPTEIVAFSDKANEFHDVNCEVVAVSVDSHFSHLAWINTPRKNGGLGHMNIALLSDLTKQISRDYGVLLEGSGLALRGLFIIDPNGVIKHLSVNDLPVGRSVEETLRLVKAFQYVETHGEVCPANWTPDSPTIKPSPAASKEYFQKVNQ
Chain of Dual specificity protein kinase CLK2 (Homo sapiens) (P49760 whole entry, looked up): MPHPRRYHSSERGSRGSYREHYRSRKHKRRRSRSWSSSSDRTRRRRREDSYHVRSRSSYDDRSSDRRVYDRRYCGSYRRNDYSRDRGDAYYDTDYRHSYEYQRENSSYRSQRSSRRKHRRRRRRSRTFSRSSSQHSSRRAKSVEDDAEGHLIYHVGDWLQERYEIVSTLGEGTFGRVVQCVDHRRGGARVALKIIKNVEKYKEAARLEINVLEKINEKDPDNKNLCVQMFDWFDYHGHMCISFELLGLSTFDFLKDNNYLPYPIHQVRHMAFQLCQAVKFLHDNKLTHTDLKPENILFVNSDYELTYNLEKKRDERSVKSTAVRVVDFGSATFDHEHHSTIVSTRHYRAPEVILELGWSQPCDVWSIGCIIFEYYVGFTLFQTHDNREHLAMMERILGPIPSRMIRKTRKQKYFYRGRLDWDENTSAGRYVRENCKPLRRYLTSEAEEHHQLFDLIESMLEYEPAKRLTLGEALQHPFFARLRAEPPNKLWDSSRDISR
Chain of RNA-binding protein 3 (Homo sapiens) (P98179 whole entry): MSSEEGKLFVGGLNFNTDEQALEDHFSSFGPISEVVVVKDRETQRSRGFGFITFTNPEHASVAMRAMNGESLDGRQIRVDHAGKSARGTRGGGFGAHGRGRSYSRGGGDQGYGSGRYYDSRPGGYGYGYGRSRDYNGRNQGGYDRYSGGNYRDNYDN

Cc1ccc(C(=O)Nc2cccc(C(F)(F)F)c2)cc1Nc1nc(-c2cccnc2)nc2c1cnn2C
ED50 [1]: 15.2 µM
ED50 [2]: 67.2 µM
ED50 [3]: 33.2 µM
ED50 [4]: 0.0552 µM
ED50 [5]: 11.5 µM
ED50 [6]: 3.02 µM
ED50 [7]: 0.571 µM
ED50 [8]: 5.64 µM
ED50 [9]: 8.9 µM
ED50 [10]: 0.0644 µM
ED50 [11]: 117 µM
ED50 [12]: 0.787 µM
ED50 [13]: 16.5 µM
ED50 [14]: 1.94 µM
ED50 [15]: 3.31 µM
ED50 [16]: 0.0238 µM
ED50 [17]: 7.88 µM
ED50 [18]: 0.0186 µM
ED50 [19]: 4.55 µM
ED50 [20]: 0.174 µM
ED50 [21]: 1.15 µM
ED50 [22]: 3.71 µM
ED50 [23]: 0.177 µM
ED50 [24]: 20500 µM
ED50 [25]: 4.64 µM
ED50 [26]: 0.00382 µM
ED50 [27]: 13 µM
ED50 [28]: 4.91 µM
ED50 [29]: 0.00945 µM
ED50 [30]: 10.5 µM
ED50 [31]: 0.164 µM
ED50 [32]: 1.06 µM
ED50 [33]: 2.88 µM
ED50 [34]: 13.5 µM
ED50 [35]: 0.577 µM
ED50 [36]: 7.65 µM
ED50 [37]: 0.00528 µM
ED50 [38]: 4.18 µM
ED50 [39]: 6.15 µM
ED50 [40]: 13.5 µM
ED50 [41]: 9.65 µM
ED50 [42]: 0.044 µM
ED50 [43]: 219 µM
ED50 [44]: 2.18 µM
ED50 [45]: 69.7 µM
ED50 [46]: 0.0264 µM
ED50 [47]: 0.157 µM

Cc1ccc(C(=O)Nc2cccc(C(F)(F)F)c2)cc1Nc1nc(-c2cccnc2)nc2nn(C)cc12
ED50 [1]: 2.69 µM
ED50 [2]: 0.0395 µM
ED50 [3]: 0.216 µM
ED50 [4]: 0.0914 µM
ED50 [5]: 0.0113 µM
ED50 [6]: 0.0175 µM
ED50 [7]: 2.54 µM
ED50 [8]: 9.63 µM
ED50 [9]: 0.393 µM
ED50 [10]: 0.09 µM
ED50 [11]: 6.69 µM
ED50 [12]: 0.126 µM
ED50 [13]: 0.0507 µM
ED50 [14]: 0.487 µM
ED50 [15]: 110 µM
ED50 [16]: 0.0778 µM
ED50 [17]: 21.4 µM
ED50 [18]: 0.348 µM
ED50 [19]: 36500 µM
ED50 [20]: 1.07 µM
ED50 [21]: 0.0267 µM
ED50 [22]: 0.0534 µM
ED50 [23]: 1.68 µM
ED50 [24]: 28.7 µM
ED50 [25]: 0.0399 µM
ED50 [26]: 0.191 µM
ED50 [27]: 0.053 µM
ED50 [28]: 4.24 µM
ED50 [29]: 15 µM
ED50 [30]: 0.0476 µM
ED50 [31]: 4.56 µM
ED50 [32]: 9.77 µM
ED50 [33]: 4.44 µM
ED50 [34]: 9.45 µM
ED50 [35]: 8.92 µM
ED50 [36]: 0.47 µM
ED50 [37]: 7.92 µM
ED50 [38]: 4.91 µM
ED50 [39]: 0.539 µM
ED50 [40]: 0.111 µM
ED50 [41]: 95.3 µM
ED50 [42]: 0.434 µM
ED50 [43]: 131 µM
ED50 [44]: 0.0205 µM
ED50 [45]: 1.13 µM
ED50 [46]: 10.3 µM
ED50 [47]: 0.0572 µM
